Experimental data: ChEMBL document CHEMBL4229521, “Identification of a novel series of potent and selective CCR6 inhibitors as biological probes” (Bioorg Med Chem Lett, 2018)

Assays:
[1] = target: T1, C-C chemokine receptor type 6 (Homo sapiens, UniProt P51684); assay: Inhibition of human CCR6 expressed in CHO cells assessed as decrease in CCL20-induced reduction of forskolin-stimulated cAMP accumulation preincubated for 30 mins followed agonist addition measured after 30 mins by HTRF assay; type: functional, cell-based
T1 sequence (P51684 whole entry): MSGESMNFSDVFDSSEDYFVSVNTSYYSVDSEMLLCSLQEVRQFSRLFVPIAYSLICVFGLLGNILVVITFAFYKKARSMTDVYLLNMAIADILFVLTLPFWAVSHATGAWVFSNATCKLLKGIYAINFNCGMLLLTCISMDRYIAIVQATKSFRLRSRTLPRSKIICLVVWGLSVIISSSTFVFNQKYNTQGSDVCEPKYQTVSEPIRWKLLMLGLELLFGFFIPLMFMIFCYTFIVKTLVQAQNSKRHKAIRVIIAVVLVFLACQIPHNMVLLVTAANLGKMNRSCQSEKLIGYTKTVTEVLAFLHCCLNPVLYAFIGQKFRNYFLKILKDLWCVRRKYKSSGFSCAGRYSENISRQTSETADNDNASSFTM

[2] = Clearance in cynomolgus monkey at 0.1 mg/kg, iv or 1 mg/kg, po; type: ADME, organism-based, Macaca fascicularis; conditions: in vivo
[3] = target: T2, Voltage-gated inwardly rectifying potassium channel KCNH2 (Homo sapiens, UniProt Q12809); assay: Inhibition of human ERG in absence of BSA
T2 sequence (Q12809 whole entry): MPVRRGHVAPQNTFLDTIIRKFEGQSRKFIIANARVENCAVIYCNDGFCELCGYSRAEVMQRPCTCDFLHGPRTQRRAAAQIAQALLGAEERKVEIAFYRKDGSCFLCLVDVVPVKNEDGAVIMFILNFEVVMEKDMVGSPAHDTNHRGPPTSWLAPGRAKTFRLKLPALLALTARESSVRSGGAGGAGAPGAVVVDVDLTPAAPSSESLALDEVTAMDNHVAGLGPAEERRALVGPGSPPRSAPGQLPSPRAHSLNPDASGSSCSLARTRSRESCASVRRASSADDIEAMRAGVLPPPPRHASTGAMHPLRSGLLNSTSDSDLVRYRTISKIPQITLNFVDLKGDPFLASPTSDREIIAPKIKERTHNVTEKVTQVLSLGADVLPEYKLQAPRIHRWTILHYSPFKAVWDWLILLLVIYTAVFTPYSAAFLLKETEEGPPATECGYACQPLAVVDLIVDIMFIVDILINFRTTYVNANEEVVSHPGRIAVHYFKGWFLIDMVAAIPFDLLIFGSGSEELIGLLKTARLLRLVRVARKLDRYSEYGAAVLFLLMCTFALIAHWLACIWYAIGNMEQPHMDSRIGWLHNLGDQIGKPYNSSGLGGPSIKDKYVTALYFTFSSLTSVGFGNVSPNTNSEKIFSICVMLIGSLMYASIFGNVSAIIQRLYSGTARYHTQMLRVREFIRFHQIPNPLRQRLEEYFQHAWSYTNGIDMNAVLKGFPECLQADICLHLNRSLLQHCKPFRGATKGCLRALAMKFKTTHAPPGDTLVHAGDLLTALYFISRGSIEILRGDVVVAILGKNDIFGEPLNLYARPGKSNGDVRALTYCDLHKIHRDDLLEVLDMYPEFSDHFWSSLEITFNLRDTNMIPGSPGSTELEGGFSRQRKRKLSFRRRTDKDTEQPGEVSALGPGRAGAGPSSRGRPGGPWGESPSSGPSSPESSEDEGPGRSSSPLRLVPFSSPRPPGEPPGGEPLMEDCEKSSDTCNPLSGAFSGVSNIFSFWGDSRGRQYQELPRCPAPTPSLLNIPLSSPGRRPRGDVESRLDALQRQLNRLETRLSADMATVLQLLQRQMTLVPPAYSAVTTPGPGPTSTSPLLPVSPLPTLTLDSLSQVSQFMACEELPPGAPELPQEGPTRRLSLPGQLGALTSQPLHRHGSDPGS

CYP2C9 = CYP2C9 (Homo sapiens, UniProt P11712); assay: Inhibition of CYP2C9 (unknown origin) at 10 uM relative to control; type: ADME
Sequence of CYP2C9 (P11712 whole entry): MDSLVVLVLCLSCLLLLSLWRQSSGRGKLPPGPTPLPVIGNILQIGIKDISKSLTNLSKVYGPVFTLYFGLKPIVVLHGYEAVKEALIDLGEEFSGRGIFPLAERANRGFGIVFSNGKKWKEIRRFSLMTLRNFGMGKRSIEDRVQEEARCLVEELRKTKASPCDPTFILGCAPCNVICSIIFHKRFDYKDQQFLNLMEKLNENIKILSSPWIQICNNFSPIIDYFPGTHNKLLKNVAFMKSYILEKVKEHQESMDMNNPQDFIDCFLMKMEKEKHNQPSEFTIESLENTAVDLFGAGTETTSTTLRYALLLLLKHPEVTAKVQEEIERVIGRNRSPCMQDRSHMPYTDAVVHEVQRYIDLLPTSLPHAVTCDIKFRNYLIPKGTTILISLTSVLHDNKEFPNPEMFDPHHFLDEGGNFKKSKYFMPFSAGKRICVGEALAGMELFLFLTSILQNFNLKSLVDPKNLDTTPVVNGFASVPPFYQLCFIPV

CYP1A2 = target: T3, CYP1A2 (Homo sapiens, UniProt P05177); assay: Inhibition of CYP1A2 (unknown origin) at 10 uM relative to control; type: ADME
T3 sequence (P05177 whole entry): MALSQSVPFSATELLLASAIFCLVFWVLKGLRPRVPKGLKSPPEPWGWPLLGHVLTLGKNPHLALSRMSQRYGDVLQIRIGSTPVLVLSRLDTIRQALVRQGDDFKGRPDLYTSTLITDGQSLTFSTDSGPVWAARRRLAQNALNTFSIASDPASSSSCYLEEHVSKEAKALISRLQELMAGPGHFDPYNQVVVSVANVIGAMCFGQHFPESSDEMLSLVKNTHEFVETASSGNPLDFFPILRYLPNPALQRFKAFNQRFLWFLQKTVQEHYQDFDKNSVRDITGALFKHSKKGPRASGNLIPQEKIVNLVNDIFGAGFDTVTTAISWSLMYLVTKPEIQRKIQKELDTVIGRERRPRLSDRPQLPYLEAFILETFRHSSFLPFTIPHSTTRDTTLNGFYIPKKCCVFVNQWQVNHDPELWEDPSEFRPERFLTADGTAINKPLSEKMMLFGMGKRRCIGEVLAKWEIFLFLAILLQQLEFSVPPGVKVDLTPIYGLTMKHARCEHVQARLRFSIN

[4] = target: T2, Voltage-gated inwardly rectifying potassium channel KCNH2; assay: Inhibition of human ERG in presence of BSA
CYP2C8 = target: T4, CYP2C8 (Homo sapiens, UniProt P10632); assay: Inhibition of CYP2C8 (unknown origin) at 10 uM relative to control; type: ADME
T4 sequence (P10632 whole entry): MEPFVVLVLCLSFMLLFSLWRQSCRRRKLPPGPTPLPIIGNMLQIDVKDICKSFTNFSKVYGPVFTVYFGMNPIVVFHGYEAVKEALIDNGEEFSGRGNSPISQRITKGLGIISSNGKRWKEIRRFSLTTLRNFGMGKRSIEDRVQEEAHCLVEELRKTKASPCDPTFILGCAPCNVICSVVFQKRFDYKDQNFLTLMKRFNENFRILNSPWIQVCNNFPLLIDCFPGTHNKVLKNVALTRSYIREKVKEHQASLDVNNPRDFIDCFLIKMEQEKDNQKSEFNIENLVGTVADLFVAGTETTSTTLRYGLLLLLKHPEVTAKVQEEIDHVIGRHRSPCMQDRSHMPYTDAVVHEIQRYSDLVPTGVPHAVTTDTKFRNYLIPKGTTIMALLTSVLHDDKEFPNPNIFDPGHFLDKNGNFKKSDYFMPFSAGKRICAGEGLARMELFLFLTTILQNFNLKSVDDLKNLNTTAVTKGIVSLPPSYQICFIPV

CYP2D6 = CYP2D6 (Homo sapiens, UniProt P10635); assay: Inhibition of CYP2D6 (unknown origin) at 10 uM relative to control; type: ADME
Sequence of CYP2D6 (P10635 whole entry): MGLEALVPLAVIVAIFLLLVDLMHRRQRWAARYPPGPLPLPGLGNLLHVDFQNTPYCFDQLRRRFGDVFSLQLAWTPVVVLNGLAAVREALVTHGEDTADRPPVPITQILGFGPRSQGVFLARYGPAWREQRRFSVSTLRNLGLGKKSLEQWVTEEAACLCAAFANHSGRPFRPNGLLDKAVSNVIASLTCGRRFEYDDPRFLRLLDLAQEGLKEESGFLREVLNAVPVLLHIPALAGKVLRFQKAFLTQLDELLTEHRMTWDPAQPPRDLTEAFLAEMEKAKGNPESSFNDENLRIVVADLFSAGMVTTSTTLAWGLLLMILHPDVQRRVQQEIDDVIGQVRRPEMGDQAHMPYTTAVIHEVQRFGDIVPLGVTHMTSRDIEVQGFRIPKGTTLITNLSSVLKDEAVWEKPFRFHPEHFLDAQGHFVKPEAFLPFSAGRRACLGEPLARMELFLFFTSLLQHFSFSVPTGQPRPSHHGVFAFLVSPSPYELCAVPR

[5] = Volume of distribution at steady state in cynomolgus monkey at 0.1 mg/kg, iv or 1 mg/kg, po; type: ADME, organism-based, Macaca fascicularis; conditions: in vivo, read-out: Vdss
[6] = target: T5, C-C chemokine receptor type 7 (Homo sapiens, UniProt P32248); assay: Inhibition of human CCR7 expressed in CHO cells assessed as decrease in CCL19-induced reduction of forskolin-stimulated cAMP accumulation preincubated for 30 mins followed agonist addition measured after 30 mins by HTRF assay; type: functional, cell-based
T5 sequence (P32248 whole entry): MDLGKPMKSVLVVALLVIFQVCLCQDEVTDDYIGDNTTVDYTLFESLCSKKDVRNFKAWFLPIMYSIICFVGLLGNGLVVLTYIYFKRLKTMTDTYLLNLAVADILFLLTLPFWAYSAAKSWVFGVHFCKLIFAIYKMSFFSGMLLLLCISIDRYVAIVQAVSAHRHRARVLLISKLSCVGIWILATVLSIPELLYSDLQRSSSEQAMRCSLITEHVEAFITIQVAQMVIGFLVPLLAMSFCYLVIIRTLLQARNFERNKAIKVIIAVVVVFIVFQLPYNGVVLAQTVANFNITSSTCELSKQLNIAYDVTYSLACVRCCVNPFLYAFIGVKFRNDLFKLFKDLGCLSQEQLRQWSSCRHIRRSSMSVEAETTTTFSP

[7] = AUC (0 to 24 hrs) in cynomolgus monkey at 0.1 mg/kg, iv; type: ADME, organism-based, Macaca fascicularis; parameters: dose 0.1 mg/kg, time < 24 hr, route intravenous; conditions: in vivo
[8] = AUC (0 to 24 hrs) in cynomolgus monkey at 1 mg/kg, po; type: ADME, organism-based, Macaca fascicularis; parameters: dose 1 mg/kg, time < 24 hr, route oral; conditions: in vivo
[9] = Oral bioavailability in cynomolgus monkey at 1 mg/kg; type: ADME, organism-based, Macaca fascicularis; conditions: in vivo
[10] = Fraction unbound in cynomolgus monkey plasma at 0.1 mg/kg, iv or 1 mg/kg, po; type: ADME, organism-based, Macaca fascicularis
CYP3A4 = CYP3A4 (Homo sapiens, UniProt P08684); assay: Inhibition of CYP3A4 (unknown origin) at 10 uM relative to control; type: ADME
Sequence of CYP3A4 (P08684 whole entry): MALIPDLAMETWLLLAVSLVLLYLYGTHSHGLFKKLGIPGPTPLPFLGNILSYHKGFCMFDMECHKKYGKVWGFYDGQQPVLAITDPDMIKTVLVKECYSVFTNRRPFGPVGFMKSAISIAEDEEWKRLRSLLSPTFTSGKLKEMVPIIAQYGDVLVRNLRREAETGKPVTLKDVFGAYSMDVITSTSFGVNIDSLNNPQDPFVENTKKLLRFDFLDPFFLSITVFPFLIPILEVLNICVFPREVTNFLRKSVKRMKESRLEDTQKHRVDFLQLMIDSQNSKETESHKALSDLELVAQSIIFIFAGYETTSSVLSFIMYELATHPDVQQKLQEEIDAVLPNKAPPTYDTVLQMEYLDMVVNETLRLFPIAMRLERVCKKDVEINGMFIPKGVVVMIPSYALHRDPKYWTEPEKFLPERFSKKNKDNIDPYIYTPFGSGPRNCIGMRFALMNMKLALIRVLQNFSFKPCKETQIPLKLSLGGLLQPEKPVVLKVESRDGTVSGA

[11] = target: T6, C-C chemokine receptor type 1 (Homo sapiens, UniProt P32246); assay: Inhibition of human CCR1 expressed in CHO cells assessed as decrease in RANTES-induced reduction of forskolin-stimulated cAMP accumulation preincubated for 30 mins followed agonist addition measured after 30 mins by HTRF assay; type: functional, cell-based
T6 sequence (P32246 whole entry): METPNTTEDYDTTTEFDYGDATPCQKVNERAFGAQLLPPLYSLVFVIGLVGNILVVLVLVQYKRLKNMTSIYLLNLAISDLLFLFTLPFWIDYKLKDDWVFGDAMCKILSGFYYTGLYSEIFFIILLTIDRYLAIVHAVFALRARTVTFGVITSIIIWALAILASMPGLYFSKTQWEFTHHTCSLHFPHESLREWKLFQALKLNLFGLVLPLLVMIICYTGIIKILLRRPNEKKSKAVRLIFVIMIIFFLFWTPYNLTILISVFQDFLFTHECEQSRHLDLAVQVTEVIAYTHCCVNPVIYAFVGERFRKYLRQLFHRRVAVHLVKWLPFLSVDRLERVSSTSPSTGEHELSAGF

[12] = Cytotoxicity against human B cells assessed as ATP content at 30 uM by cell titer glo-based luminescence assay relative to control; conditions: read-out: Activity
[13] = Metabolic stability in human liver microsomes; type: ADME, microsome; conditions: read-out: Stability
[14] = target: T7, C-C chemokine receptor type 6 (Macaca mulatta, UniProt H9YX08); assay: Inhibition of monkey CCR6 expressed in CHO cells assessed as decrease in CCL20-induced reduction of forskolin-stimulated cAMP accumulation preincubated for 30 mins followed agonist addition measured after 30 mins by HTRF assay; type: cell-based
T7 sequence (H9YX08 whole entry): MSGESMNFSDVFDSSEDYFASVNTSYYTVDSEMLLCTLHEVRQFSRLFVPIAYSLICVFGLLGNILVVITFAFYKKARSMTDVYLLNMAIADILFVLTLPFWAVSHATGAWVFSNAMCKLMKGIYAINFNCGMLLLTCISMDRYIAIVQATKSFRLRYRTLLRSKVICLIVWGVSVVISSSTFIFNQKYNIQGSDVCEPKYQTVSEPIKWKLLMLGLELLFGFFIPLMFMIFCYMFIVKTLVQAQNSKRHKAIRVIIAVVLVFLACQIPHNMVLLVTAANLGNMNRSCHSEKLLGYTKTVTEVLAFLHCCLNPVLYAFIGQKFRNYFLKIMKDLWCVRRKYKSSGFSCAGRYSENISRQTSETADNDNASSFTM

[15] = Solubility of the compound in water at pH 6.8; type: physicochemical
[16] = Solubility of the compound in buffer solution at pH 6.8; type: physicochemical

Row | Structure (SMILES) | IC50 [1] | IC50 [6] | IC50 [11] | also measured
1 | Cc1cccc(S(=O)(=O)N2CCC(Nc3ccc(C#N)cn3)CC2)c1 | > 30 µM | – | – | –
2 | NC(=O)c1cc(-c2ccc(S(=O)(=O)[C@H]3CC[C@H](Nc4ccc(C(F)(F)F)cn4)CC3)cc2)ccn1 | – | 9.4 µM | > 30 µM | clearance [2]: 1.1 mL/min/kg; inhibition (INH) [3]: < 50%; inhibition at 10 µM (CYP2C9): 51%; inhibition at 10 µM (CYP1A2): < 50%; inhibition (INH) [4]: < 50%; inhibition at 10 µM (CYP2C8): < 50%; inhibition at 10 µM (CYP2D6): < 50%; Vd [5]: 0.704 L/kg; AUC(0-t) at 24 h [7]: 1550 ng·h/mL; AUC(0-t) at 24 h [8]: 10000 ng·h/mL; bioavailability [9]: 65%; fraction unbound [10]: 0.01; inhibition at 10 µM (CYP3A4): < 50%
3 | COc1ccc(S(=O)(=O)N2CCC(Nc3ccc(C#N)cc3)CC2)cc1 | 1.9 µM | – | – | viability at 30 µM [12]: 44.9%; microsomal CLint [13]: 69 µL/min/mg
4 | NC(=O)c1ccc(-c2ccc(S(=O)(=O)[C@H]3CC[C@H](Nc4ccc(C(F)(F)F)cn4)CC3)cc2)cn1 | – | 18 µM | > 30 µM | –
5 | COc1ccc(S(=O)(=O)N2CCC(Nc3cc(C#N)ccn3)CC2)cc1 | > 30 µM | – | – | –
6 | COc1ccc(S(=O)(=O)N2CCC(Nc3ccc(C#N)cn3)C2)cc1 (stereo not given) | > 30 µM | – | – | –
7 | COc1ccc(S(=O)(=O)N2CCC(Nc3cccc(C#N)n3)CC2)cc1 | 7.4 µM | – | – | –
8 | N#Cc1ccc(NC2CCN(S(=O)(=O)c3cccc(-c4ccccc4)c3)CC2)nc1 | > 30 µM | – | – | –
9 | N#Cc1ccc(-c2ccc(S(=O)(=O)[C@H]3CC[C@H](Nc4ccc(C(F)(F)F)cn4)CC3)cc2)cc1 | – | > 30 µM | > 30 µM | –
10 | Cc1ccc(S(=O)(=O)N2CCC(Nc3ccc(C#N)cn3)CC2)cc1 | 3.1 µM | > 30 µM | > 30 µM | IC50 [14]: 1300 nM
11 | COc1ccc(NC2CCN(S(=O)(=O)c3ccc(OC)cc3)CC2)cc1 | > 30 µM | – | – | –
12 | NC(=O)c1ccc(-c2ccc(S(=O)(=O)[C@H]3CC[C@H](Nc4ccc(C(F)(F)F)cn4)CC3)cc2)cc1 | – | > 30 µM | > 30 µM | –
13 | CC(C)(C)c1ccc(S(=O)(=O)N2CCC(Nc3ccc(C#N)cn3)CC2)cc1 | – | – | – | solubility [15]: < 0.1 µg/mL; solubility [16]: < 0.1 µg/mL
14 | N#Cc1ccc(NC2CCN(S(=O)(=O)c3ccc(-c4ccccc4)cc3)CC2)nc1 | 0.29 µM | > 30 µM | > 30 µM | IC50 [14]: 280 nM
15 | CC(=O)Nc1ccc(S(=O)(=O)N2CCC(Nc3ccc(C#N)cn3)CC2)cc1 | > 30 µM | – | – | –
16 | COc1ccc(S(=O)(=O)N2CCC(Nc3ccc(C#N)cn3)CC2)cc1 | 2.5 µM | – | – | viability at 30 µM [12]: 72.7%; microsomal CLint [13]: 19 µL/min/mg
17 | N#Cc1ccc(NC2CCN(S(=O)(=O)c3ccc(Cl)cc3)CC2)nc1 | 1.5 µM | – | – | –
